Assay results reported in ChEMBL document CHEMBL2094269, “WEHI/Eskitis Trypanosoma b. brucei screening data”.
pIC50: −log10 of the molar value.

Key:
[1] = DNDI: Cytotoxicity against human MRC-5 lung fibroblast cells.; conditions: IC50
[2] = test system: Trypanosoma brucei brucei; assay: microbe, parasite or virus in culture; format: functional, organism-based, STIB 795
Description: DNDI: Inhibition of Human African Trypanosomiasis (HAT), STIB 795, in vitro

| Compound | pIC50 [1] | pIC50 ([2]; Trypanosoma brucei, STIB 795) | pIC50 [2] |
| --- | --- | --- | --- |
| CCN(CC)c1ccc(/C=C/C2=[N+](C)c3ccc(C(=O)OC)cc3C2(C)C)cc1 | 5.41 | 7.25 | – |
| O=C(NCCc1csc(-c2ccc(F)cc2)n1)c1ccc(Br)o1 | < 4.38 | 5.33 | – |
| CCN1CCN(C(c2cccnc2)c2cc(Cl)c3cccnc3c2O)CC1 (centres undefined) | < 4.38 | 5.23 | – |
| COC(=O)c1ccc(C2N=C(c3cccs3)CC(c3ccccc3O)N2)cc1 (centres undefined) | < 4.38 | 5.26 | – |
| CCCOc1cccc(C(=O)Nc2cccc(-c3nc4ncccc4o3)c2C)c1 | < 5.38 | 6.18 | – |
| CCOC(=O)CNC(=O)C(Cc1ccccc1)NS(=O)(=O)c1cccs1 (centres undefined) | < 4.38 | 5.26 | – |
| CC(C)(C)OC(=O)N1CCC[C@H]1c1nnc(SCc2cccc(Cl)c2)o1 | 5.54 | 6.27 | – |
| COc1ccc(C(NC(=O)CC(C)C)c2ccc3cccnc3c2O)cc1OC (centres undefined) | 6.16 | 6.22 | – |
| CCN1/C(=C/C(=C/c2sc3ccccc3[n+]2CC)OC)Sc2ccccc21 | 5.65 | 6.28 | – |
| CN1CCN(c2nc(Nc3ccc(F)cc3)nc(Nc3ccc(F)cc3)n2)CC1 | < 4.38 | 5.29 | – |
| CC(C)(C)C(=O)N1N=C(c2ccc(NS(C)(=O)=O)cc2)CC1c1ccco1 (centres undefined) | < 4.68 | 5.25 | – |
| C=CCN(CC=C)Cc1c(O)ccc2c(=O)c(-c3ccccc3Cl)coc12 | < 4.38 | 5.28 | 5.28 |
| O=C(N/N=C/c1cc(I)ccc1O)c1ccccc1O | < 5.38 | 4.35 | – |
| CC(O)CN1C(=O)c2ccc3c4c(ccc(c24)C1=O)C(=O)N(CC(C)O)C3=O (centres undefined) | < 4.38 | 5.30 | – |
| CC(C)(C)c1cc(C(c2ccccn2)N2CCOCC2)cc(C(C)(C)C)c1O (centres undefined) | < 4.38 | 4.97 | – |
| COc1ccccc1C(=O)c1sc(Nc2ccc3c(c2)OCCO3)nc1N | < 5.98 | ≥ 5.97 | – |
| COc1ccccc1C(NC(=O)c1ccccc1)c1ccc2cccnc2c1O (centres undefined) | < 4.98 | 5.25 | – |
| Oc1c(/C=N/NC(=S)Nc2cccc(F)c2)cc2c3c1CCCN3CCC2 | < 4.38 | 5.51 | – |
| Fc1ccc(C(CCCN2CCN3CCCCC3C2)c2ccc(F)cc2)cc1 (centres undefined) | < 4.38 | 5.27 | – |
| O=C(N/N=C/c1c(O)ccc2ccccc12)c1cc(Br)ccc1O | < 5.38 | 5.42 | – |
| Cc1ccc2c(c1)OCC(CC(=O)NCCN(C)C)N2Cc1ccc(F)cc1 (centres undefined) | < 5.38 | 5.66 | – |
| CC(C)c1ccc(-c2csc(NC(=O)C3C4CCC(O4)C3C(=O)O)n2)cc1 (centres undefined) | < 4.38 | 5.81 | 6.06 |
| CC(=O)Nc1ccc(C)cc1S(=O)(=O)NCCn1c(C)nc2ccccc21 | < 4.38 | 5.32 | – |

| Compound | pIC50 [1] | pIC50 ([2]; Trypanosoma brucei, STIB 795) | pIC50 [2] |
| --- | --- | --- | --- |
| CCS(=O)(=O)N1CCCc2ccc(NS(=O)(=O)c3cccs3)cc21 | < 4.38 | 6.10 | – |
| Cc1c(Br)c(C(=O)N/N=C/c2c(O)ccc3ccccc23)nn1C | < 4.68 | ≥ 4.98 | – |
| COc1ccc(C2(CCNCc3ccc(Cl)cc3)CCOC(C)(C)C2)cc1 (centres undefined) | < 4.38 | 5.12 | – |
| O=C1CC(n2nnn(-c3ccc(OC(F)(F)F)cc3)c2=S)C2COC1O2 (centres undefined) | < 4.38 | 5.30 | – |
| CCCN1C(=O)C(O)(CC(=O)c2cccnc2)c2cc(Br)ccc21 (centres undefined) | < 4.38 | 6.21 | – |
| N#C/C(=C\c1cccn1-c1ccc(S(N)(=O)=O)cc1)c1nc2ccccc2[nH]1 | < 4.38 | 5.30 | – |
| CCCCCOc1ccc(NC(=O)C(=O)NC2CC(C)(C)NC(C)(C)C2)cc1 | < 4.38 | 5.31 | – |
| Cc1ccc(Cn2cc(CCC(=O)NCCN3CCCC3)c3ccccc32)cc1 | < 4.68 | 5.48 | – |
| COc1ccc(/C(N)=N/OC(=O)c2cc(OC)c(OC)cc2OC)cc1OC | < 4.38 | 6.10 | – |
| CN(C)S(=O)(=O)c1ccc(C(=O)Nc2nnc(-c3ccc(F)cc3)o2)cc1 | < 4.38 | 5.31 | – |
| COc1ccccc1C(NC(=O)C1CCCCC1)c1ccc2cccnc2c1O (centres undefined) | < 4.38 | 4.96 | – |
| CC1(C)CC(=O)c2sc(NC(=O)c3sc4ccccc4c3Cl)nc2C1 | < 4.38 | 6.35 | – |
| CCOC(=O)c1ccc(NC(=O)Cn2c(C(F)(F)F)nc3ccccc32)cc1 | < 4.38 | 5.22 | 5.11 |
| COc1ccccc1C(=O)Nc1ccccc1Sc1cc(C)nc2ncnn12 | < 4.38 | 5.40 | – |
| COc1ccccc1C1N=C(c2ccc(Cl)cc2)CC(c2ccccc2O)N1 (centres undefined) | < 4.38 | 5.28 | – |
| CN1CCC(=NNC(=O)c2cc(-c3ccc(Cl)cc3)nc3ccccc23)CC1 | < 4.38 | 5.26 | – |
| O=c1ccccc2c(/C=C/c3cccc(Cl)c3Cl)nn(-c3ccccc3)c12 | < 4.98 | 5.27 | – |
| CC(=O)NC1=C(N2CCN(C(=O)c3ccco3)CC2)C(=O)c2ccccc2C1=O | < 4.38 | 5.27 | 5.27 |
| Cc1nc2ncnn2c(Sc2ccccc2NC(=O)c2cccc(F)c2)c1C | < 4.68 | 5.78 | – |
| O=C(CC(Sc1cccc2cccnc12)c1ccc(F)cc1)c1cccs1 (centres undefined) | < 4.68 | 6.29 | – |
| COc1ccc(C2=NC3(CCN(C(C)C)CC3)NC(c3ccccc3O)C2)cc1 (centres undefined) | < 4.68 | 5.86 | – |
| CCN1/C(=C/C=C/c2sc3c(C)cccc3[n+]2CC)Sc2c(C)cccc21 | < 4.68 | 6.30 | – |
| O=C(Nc1ccc(Cl)cc1)O/N=C(/c1ccc(Cl)cc1)N1CCOCC1 | < 4.38 | 5.37 | – |

| Compound | pIC50 [1] | pIC50 ([2]; Trypanosoma brucei, STIB 795) | pIC50 [2] |
| --- | --- | --- | --- |
| CCCn1c(=N)n(CC(O)COc2ccc(Cl)cc2Cl)c2ccccc21 (centres undefined) | 5.06 | 5.71 | – |
| Cc1ccc([N+]2=C3SCCCN3C(O)(c3ccc(Cl)cc3Cl)C2)cc1 (centres undefined) | < 5.38 | 5.28 | – |
| CC1CCN(C(c2cc(C(C)(C)C)c(O)c(C(C)(C)C)c2)c2ccccn2)CC1 (centres undefined) | < 4.38 | 5.24 | – |
| Oc1c(C(Nc2ccccn2)c2ccc(C(F)(F)F)cc2)ccc2cccnc12 (centres undefined) | < 4.38 | 5.49 | – |
| CCc1cccc(-n2nnnc2N2CCN(C(=O)Nc3ccc(F)cc3)CC2)c1 | < 4.38 | 5.38 | – |
| CCc1cc(Sc2ccccc2NC(=O)C2CCCCC2)n2nc(C)nc2n1 | < 4.38 | 5.28 | – |
| CC(C)(C)c1cc(C(c2ccccc2O)N2CCCCC2)cc(C(C)(C)C)c1O (centres undefined) | < 4.38 | 5.47 | 5.35 |
| Cc1cccc(C)c1C(OCC1CN(C(C)C)C(C)(C)O1)c1c(C)cccc1C (centres undefined) | < 4.68 | 5.31 | – |
| C/C(=N\NC(=O)c1cccc(I)c1)c1ccc(O)cc1O | 5.43 | 5.72 | – |
| CCCCNCc1cc(Br)c(OCc2ccc(F)cc2)c(OC)c1 | < 4.38 | 5.40 | – |
| C=CCc1cccc(/C=N/NC(=O)c2cc(-c3ccc4ccccc4c3)n[nH]2)c1O | < 4.38 | 5.52 | – |
| CC(C)=C1C2CCC1C1C(=O)N(NC(=O)C(C)Oc3ccc(C)c(C)c3)C(=O)C21 (centres undefined) | < 4.38 | 5.27 | – |
| COc1ccc(-n2nc(N3CCCC(C(=O)NC4CCCC4)C3)ccc2=O)cc1 (centres undefined) | < 4.38 | 5.64 | – |
| CCCc1cc(=O)[nH]c(-n2nc(C)cc2NC(=O)c2ccc(OC)c(OC)c2)n1 | < 4.38 | 5.28 | – |
| CCCCn1c(=N)n(CC(O)c2ccc(Br)cc2)c2ccccc21 (centres undefined) | < 4.68 | 5.28 | 5.27 |
| CN(C)CCn1c(=N)n(CC(O)c2ccc(Cl)c(Cl)c2)c2ccccc21 (centres undefined) | < 5.38 | 5.97 | – |
| CN(C)CCCn1c(N)c(-c2nc3ccccc3[nH]2)c2nc(C#N)c(C#N)nc21 | < 4.38 | 5.39 | – |
| C[N+](C)(C)c1nc(N2CCOCC2)nc(N(c2ccccc2)c2ccccc2)n1 | < 4.38 | 5.60 | – |
| COc1ccccc1N1CCN(Cc2cc(Cl)c3cccnc3c2O)CC1 | < 5.38 | 5.22 | < 4.98 |
| COCc1cc(CN2CCN(c3ccccc3OC)CC2)c(O)c2ncccc12 | 5.80 | 5.64 | – |
| CCCC(=O)NC(c1ccccc1Cl)c1cc(Cl)c2cccnc2c1O (centres undefined) | < 4.68 | 5.80 | – |
| Cn1c(=N)n(CC(=O)c2cc(C(C)(C)C)c(O)c(C(C)(C)C)c2)c2ccccc21 | < 4.68 | 5.34 | 5.58 |
